Measured values reported in patent publication US20170035914A1, “FUNCTIONALIZED PEPTIDE TRANSPORTERS FOR CELLULAR UPTAKE” (General Electric Company, priority 2015, published 2017).
Primed or numbered codes have the meaning given here. 5‑FAM = 5-FAM fluorescein label; Npys′ = not defined here

What was measured:
live cells = experiment: Live-cell fluorescence microscopy of cell uptake and nuclear labeling, cell type not given (FIG. 4, 6, 7, 9); format: cell-based
From the text: (§1) A CPP-cargo construct (comprising a cell-penetrating moiety and a nuclear targeting moiety) was synthesized and conjugated via reactive 3-nitro-2-pyridinesulfenyl cysteine residues, and then purified by HPLC. When exogenously supplemented into cell staining media, these peptide fusions are designed to penetrate living cells and cleave into two subunits within the reducing environment of cell cytoplasm, thereby releasing a FITC-NLS peptide that is actively trafficked into the cell nucleus.

MRC5 cells = experiment: Live-cell fluorescence microscopy of cell uptake and nuclear labeling by CPP-NLS-FAM fusion peptides; format: cell-based, human
From the text: as §1, with “nucleus. Thus, the fusion peptide is convenient for discriminating nuclei by live-cell microscopy.” for “nucleus.”
(§2) Live human MRC5 cells and mammalian CHO cells were incubated with fusion proteins as depicted in the flow chart in FIG. 3, steps 1 through 9. […] The FITC-NLS/pVEC fusion was constructed by independently synthesizing a FITC-NLS-Npys peptide and a modified pVEC sequence containing a terminal cysteine residue: […]

CHO cells = experiment: as above; format: cell-based; details: mammalian CHO cells, compared with other tested cell-penetrating sequences, FIG. 4
From the text: as §1, with “nucleus. Thus, the fusion peptide is convenient for discriminating nuclei by live-cell microscopy.” for “nucleus.”
as §2

[1] = in the presence of excess monovalent pVEC (~132-156 μg/well), FIG. 7

Row | Substance | effect of monovalent pVEC on cell uptake (live cells; higher amounts of monovalent pVEC (~132 μg/well), FIG. 9) | cell-uptake efficiency and nuclear labeling (MRC5 cells; live human MRC5 cells, compared with other tested cell-penetrating sequences, FIG. 4) | effect of monovalent pVEC on cellular uptake (MRC5 cells; monovalent pVEC ~44 μg/well, MRC5 cells, FIG. 8) | cell-uptake efficiency and nuclear labeling (CHO cells) | cell uptake and nuclear targeting (live cells; [1]) | reduction in fusion peptide needed for equal or better cell uptake and nuclear labeling (live cells; [1]) | delivery of the NLS-FAM cargo moiety into cells (live cells; various cell types, FIG. 4 legend)
1 | 5-FAM-GGPKKKRKVGGC(N-Pys)-OH ({5‑FAM}-GGPKKKRKVGGC(Npys′)-OH) [FITC-NLS-Npys] | enhanced cell uptake |  |  |  |  |  | 
2 | 5-FAM-GGPKKKRKVGGCCGGKSHAHAQKRIRRRLIILL (not fully specified; 5-FAM; disulfide-linked) [FAM-NLS-C-C-pVEC, disulfide-linked fusion of Fluorescein-NLS-Npys peptide and modified pVEC peptide] |  | highest | enhanced | highest | enhanced | at least 8 fold | high efficiency
